According to US10603289B2, “Process for the manufacture of ajoene derivatives” (DANMARKS TEKNISKE UNIVERSITET, priority 2010, dated 2020):

Legend:
P. aeruginosa PAO1 = assay type: in vivo; settings: day three post-infection; E:Z 1:4 (FIG. 8)
Method: Mice were sacrificed on day one or day three post-infection and the contents of bacteria in the lungs were determined. Open squares indicate bacterial lung content per lung for each individual mouse. The median values are indicated with a filled black square. The statistic significance of difference in clearance was tested by a Mann-Whitney U test (analysis of nonparametric data) and p-values for the difference at day one and day three were 0.9 and 0.002 respectively.
In this study ajoene was administered prophylactic and subsequently continued after infection. Injections were given subcutaneous in the peritoneum. We performed three individual in vivo treatment experiments with ajoene in the mouse model of pulmonary infection using the P. aeruginosa PAO1. BALB/c mice were intracheally challenged (at day 0) with alginate beads containing 1.5×10^8 CFU/ml P. aeruginosa. The two groups of mice were either untreated (placebo) or treated with ajoene 25 μg/g mouse once a day. The mice were given two days of prophylactic treatment or placebo prior to bacterial challenge. Treatment was continued for three days. […] When combining the experiments a significant difference on day three was seen (p<0.002) with a 500 fold difference in clearance between the groups (FIG. 7). This is concordant with the results obtained by Bjarnsholt et al (2005) in a similar lung infection model in with raw garlic extract was used as treatment [T. Bjarnsholt et al., Microbiology, 2005, 151, p. 3873-3880].
This highlights that a synthesis providing a sufficiently pure “crude” ajoene product is essential in order to avoid the use of HPLC purification, as this step has a detrimental effect on biological activity. […] (E,Z) ajoene having an E:Z ratio of 1:4 was used.

wild-type P. aeruginosa = experiment: Foreign-body (silicone tube implant) infection model; assay type: in vivo, mice; settings: CFU per implant 72 hours after insertion
Method: To examine the effect of a combination treatment with ajoene and tobramycin in vivo we used an foreign-body infection model [L. D. Christensen et al., Microbiology, 2007, 153, p. 2312-2320]. Silicone tube implants with a size of 4 mm (inner diameter 4 mm/outer diameter 6 mm) pre-colonized with wild-type P. aeruginosa, were inserted into the peritoneal cavity of mice. Treatments were injected subcutaneously every 24 hours, where ajoene and tobramycin treatment were initiated two days pre-insertion and 24 hours post-insertion, respectively. 72 hours after insertion the implants were removed from the mice and the number of colony-forming units per implant was determined. […] (E,Z) ajoene having an E:Z ratio of 1:4 was used.

[1] = test system: biofilms of P. aeruginosa PAO1; experiment: In vitro flow cell biofilm killing, live dead stains and CSLM; assay type: cell-based
Method: Dead cells are stained with the DNA stain PI (Dark grey/black). The biofilm were visualized with CSLM. C) Implant model treated with ajoene and tobramycin.
3873-3880]. It was however unknown what was the active ingredient in the garlic extract. Thus. biofilms of P. aeruginosa strain were either grown in the presence or absence of 100 μg/ml ajoene. At day three the biofilms were treated with 10 μg/ml tobramycin for 24 hours. […] 10 μg/ml tobramycin was therefore chosen for the present study.

SMILES | clearing the pulmonary infection, by ajoene purity (P. aeruginosa PAO1) | clearing of implants, single treatment versus placebo group (wild-type P. aeruginosa) | extent of killing, comparison of tobramycin concentrations ([1]; prior treatment study, 10 μg/ml, 100 μg/ml or 340 μg/ml) | killing of the biofilm bacteria, single agent ([1]; tobramycin or ajoene only)
C=CCSSC=CC[S+]([O-])CC=C (centres unmarked) [very high purity ajoene] | not effective at clearing the pulmonary infection |  |  | 
C=CCSSC=CC[S+]([O-])CC=C (centres unmarked) [95-99.5% purity ajoene] | effective at clearing the pulmonary infection |  |  | 
NC[C@H]1O[C@H](O[C@H]2[C@H](O)[C@@H](O[C@H]3O[C@H](CO)[C@@H](O)[C@H](N)[C@H]3O)[C@H](N)C[C@@H]2N)[C@H](N)C[C@@H]1O [tobramycin] |  | significant difference in clearing | no difference in the extent of killing | no or only minor killing
